Measured values published in patent publication US9433214B2, “Active compounds combination containing fluopyram Bacillus and biologically control agent” (BAYER INTELLECTUAL PROPERTY GMBH, priority 2012, dated 2016).

System: Meloidogyne incognita
Assay: Meloidogyne incognita test (MELGIN): gall formation on salad seedlings in sand
Assay type: in vivo
Details: 504 h, eggs and larvae of Meloidogyne incognita, salad seeds in sand, 100% = no galls, read-out: Mortality in % after 21 d
Procedure: Meloidogyne incognita—Test (MELGIN)
Solvent: 125.0 parts by weight of acetone
To produce a suitable preparation of active compound, 1 part by weight of active compound is mixed with the stated amount of solvent, and the concentrate is diluted with water to the desired concentration. The preparation of the bacteria, fungi or yeast products contains 10^9-10^10 spores/g or cells/g. To produce a suitable preparation of a biological suspension the cells or spores are diluted with emulsifier-containing water to the desired concentration.
Vessels are filled with sand, a solution of the active ingredient, a suspension containing eggs and larvae of Meloidogyne incognita and salad seeds. The salad seeds germinate and the seedlings grow. Galls develop in the roots.
After the specified period of time the nematicidal activity is determined on the basis of the percentage of gall formation. When Meloidogyne incognita attacks roots of plants, it deforms the normal root cells and establishes giant cells and consequently the attacked roots form galls. 100% means that no galls were found; 0% means that the number of galls found on the roots of the treated plants was equal to that in untreated control plants.

O=C(NCCc1ncc(C(F)(F)F)cc1Cl)c1ccccc1C(F)(F)F [Fluopyram] was tested, and the gall reduction efficacy at 0.0005 ppm was 0%.
